From publication PMC9646836, “Tetrahydroquinolinone derivatives exert antiproliferative effect on lung cancer cells through apoptosis induction” (Scientific Reports, 2022) come the findings set out here.

One data set has as its system HepG2. Briefly: MTT cell viability assay, HepG2. The conditions noted are these: mean ± SD, n = 3. Format: cell-based. As to the method:
(§1) All new tetrahydroquinoline derivatives were assessed for cytotoxicity on a broad panel of cancer and normal cell lines, using the MTT assay. The half-inhibitory growth inhibitory concentration (IC50) values of each compound were calculated after 72 h of treatment and presented in Table 1. […] In this assay, the IC50 value of 5-FU and ETP was recorded as a positive control.
(§2) Non-small cell lung cancer cells A549 (CCL-185), breast cancer cells MCF-7 ([…]), hepatocarcinoma cells HepG2 ([…]), normal kidney cells HEK293 (CRL-1573), and osteosarcoma cells U-2 OS (HTB-96) were obtained from the American Type Culture Collection. HCT-116 cell line was kindly provided by prof. Bert Vogelstein (Johns Hopkins University, Howard Hughes Medical Institute, USA). The obtained A549 and MCF-7 cells were cultured in RPMI-1640 medium, HepG2 cells in Minimum Essential Medium Eagle medium, HEK-293 cells in Dulbecco’s Modified Eagle’s medium, and U-2 OS and HCT-116 cells in McCoy’s […] medium. All culture media were supplemented with 10% fetal bovine serum, 2 mM L-glutamine, and antibiotics (penicillin 62.6 µg/ml and streptomycin 40 µg/ml; Sigma-Aldrich). Both cancer and normal cells were cultured at 37 °C under a humidified atmosphere with 5% or 10% CO2 and routinely screened for Mycoplasma contamination. All materials and reagents were obtained from Corning unless stated otherwise.
(§3) The cytotoxic effect of the synthesized compounds was assessed by the MTT (4,5-dimethylthiazol-2-yl-2,5-diphenyltetrazoliumbromide; Sigma-Aldrich) assay. Briefly, the cells were seeded into 96-well transparent flat-bottom plates and allowed to attach overnight. On the next day, the cells were treated with compounds in the range of 0–50 µM for 72 h. Dimethyl sulfoxide (DMSO; Merck) and 5-fluorouracil (5-FU; Sigma-Aldrich) were used as a reference. After exposure to the compounds, 20 μl of the MTT solution at a concentration of 4 mg/ml was added to each well, and the plates were incubated again for 2–3 h at 37 °C. Next, the media in the wells was replaced with 100 μl DMSO to solubilize the formazan crystals. The absorbance was measured at 540 nm using an ASYS UVM340 microplate reader (Biochrom Ltd.). The IC50 value of the compounds was calculated using GraphPad Prism 9 software, based on the curves plotted with survival as a function of dose, averaged from three independent experiments.
(Tetrazolium assays rely on reduction of a dye to a coloured formazan, in cell work by metabolically active cells.)

The next data set relates to A549. In words: MTT cell viability assay, A549. It counts as cell-based, human. The conditions noted are these: mean ± SD, n = 3. As to the method:
as §1, §2, §3

For the next data set, the system named is HCT-116. In words: MTT cell viability assay, HCT-116. It counts as cell-based, human. The note with it: mean ± SD, n = 3. As to the method: as §1, §2, §3
In a further data set the test system is Hela. In words: MTT cell viability assay, Hela. Format: cell-based. The note with it: 72 h, mean ± SD, n = 3. As to the method:
as §1, §3

Another data set concerns HEK293. In words: MTT cell viability assay, HEK293 normal kidney cells. It counts as cell-based, human. The note with it: for IC50: MTT, 72 h, normal kidney cells, mean ± SD, n = 3. As to the method:
as §1, §2, §3

Another data set has as its system MCF-7. Briefly: MTT cell viability assay, MCF-7. Format: cell-based, human. The conditions noted are these: mean ± SD, n = 3. As to the method: as §1, §2, §3
Data set [1] deals with tested cell lines (HCT-116, A549, MCF-7, HepG2, Hela, HEK293). Briefly: MTT assay, broad panel of cancer and normal cell lines. It counts as cell-based. The conditions noted are these: range of 0–50 µM, 72 h. As to the method:
as §1, §3

In general, IC50 refers to the concentration that gives 50% inhibition. High values mean weaker potency, low ones greater potency. `COc1nc2c(c(-c3ccccc3)c1Cc1cccc3ccccc13)CCCC2` [Compound 6, 2-methoxy-3-(1-naphthylmethyl)-4-phenyl-5,6,7,8-tetrahydroquinoline]: the IC50 in the data set with HepG2 (Homo sapiens, HepG2, 72 h) was more than 50 µM; in the data set on A549 (Homo sapiens, A549, 72 h), 40.2 ± 0.94 µM; with HCT-116 (72 h), 15.6 ± 1.29 µM; in the data set with HCT-116 (Homo sapiens, HCT-116, 72 h) it was approximately 13 µM; with Hela (Homo sapiens, HeLa), 50 µM; in the data set on HEK293 (Homo sapiens, HEK293), more than 50 µM. In the data set with MCF-7 (Homo sapiens, MCF7, 72 h), this molecule came in with a concentration for half-maximal inhibition (IC50) of more than 50 µM. Besides, in the data set with HEK293 (tested concentrations, compared to A549 and HCT-116), the “suppressive effect on human normal HEK293 kidney cells” value is “almost no suppressive effect”.
Take `COc1cc([C@@H]2c3cc4c(cc3[C@@H](O[C@@H]3O[C@@H]5CO[C@@H](C)O[C@H]5[C@H](O)[C@H]3O)[C@H]3COC(=O)[C@H]23)OCO4)cc(OC)c1O` [ETP, reference compound]: the IC50 was 5.01 ± 0.22 µM in the data set with HepG2 (72 h); 0.54 ± 0.21 µM with A549 (72 h); 0.39 ± 0.01 µM in the data set with HCT-116 (72 h); 3.4 ± 0.51 µM in the data set on Hela; 1.91 ± 0.97 µM in the data set with HEK293; 0.83 ± 0.15 µM with MCF-7 (72 h).
With `O=c1[nH]cc(F)c(=O)[nH]1` [Compound 5-FU, 5-fluorouracil, reference compound], the half-maximal inhibitory concentration (IC50) was 13.1 ± 0.32 µM with HepG2 (Homo sapiens, HepG2, 72 h); 5.78 ± 0.38 µM in the data set with HCT-116 (Homo sapiens, HCT-116, 72 h); 11.1 ± 1.53 µM in the data set on Hela (Homo sapiens, HeLa); 16.8 ± 0.34 µM with HEK293 (Homo sapiens, HEK293); 8.41 ± 0.98 µM in the data set on MCF-7 (Homo sapiens, MCF7, 72 h).
As for `O=c1[nH]c2c(c(-c3ccccc3)c1Cc1ccc3ccccc3c1)CCCC2` [Compound 4b, 3-(2-naphthylmethyl)-4-phenyl-5,6,7,8-tetrahydro-1H-quinolin-2-one], the IC50 with HepG2 (Homo sapiens, HepG2, 72 h) was more than 50 µM; in the data set with A549 (Homo sapiens, A549, 72 h), more than 50 µM; in the data set on HCT-116 (Homo sapiens, HCT-116, 72 h), more than 50 µM; in the data set on Hela (Homo sapiens, HeLa) it was more than 50 µM; in the data set with HEK293 (Homo sapiens, HEK293), more than 50 µM; with MCF-7 (Homo sapiens, MCF7, 72 h), more than 50 µM. Further, the “effect on the tested cell lines” value in data set [1] is “did not have any effect”.
In the case of `Clc1nc2c(c(-c3ccccc3)c1Cc1cccc3ccccc13)CCCC2` [Compound 5, 2-chloro-3-(1-naphthylmethyl)-4-phenyl-5,6,7,8-tetrahydroquinoline], the concentration for half-maximal inhibition (IC50) in the data set on HepG2 (Homo sapiens, HepG2, 72 h) is more than 50 µM; with A549 (Homo sapiens, A549, 72 h), more than 50 µM; in the data set with HCT-116 (72 h), 13.1 ± 0.96 µM; in the data set on HCT-116 (Homo sapiens, HCT-116, 72 h) it was approximately 13 µM; with Hela (Homo sapiens, HeLa), more than 50 µM; in the data set with HEK293 (Homo sapiens, HEK293), more than 50 µM. In the data set on MCF-7 (Homo sapiens, MCF7, 72 h), this molecule displayed an IC50 of more than 50 µM.
On to `O=c1[nH]c2c(c(-c3ccccc3)c1Cc1ccc(C(F)(F)F)cc1)CCCC2` [Compound 4e, 4-phenyl-3-[[4-(trifluoromethyl)phenyl]methyl]-5,6,7,8-tetrahydro-1H-quinolin-2-one], for which the IC50 was more than 50 µM with HepG2 (Homo sapiens, HepG2, 72 h); more than 50 µM in the data set with A549 (Homo sapiens, A549, 72 h); more than 50 µM in the data set with HCT-116 (Homo sapiens, HCT-116, 72 h); more than 50 µM in the data set on Hela (Homo sapiens, HeLa); more than 50 µM in the data set on HEK293 (Homo sapiens, HEK293); more than 50 µM with MCF-7 (Homo sapiens, MCF7, 72 h). Further, the “effect on the tested cell lines” value in data set [1] is “did not have any effect”.
Turning to `O=c1[nH]c2c(c(-c3ccccc3)c1Cc1ccc(-c3ccccc3)cc1)CCCC2` [Compound 4c, 4-phenyl-3-[(4-phenylphenyl)methyl]-5,6,7,8-tetrahydro-1H-quinolin-2-one], the IC50 in the data set on HepG2 (Homo sapiens, HepG2, 72 h) is more than 50 µM; in the data set on A549 (Homo sapiens, A549, 72 h), more than 50 µM; in the data set with HCT-116 (Homo sapiens, HCT-116, 72 h), more than 50 µM; in the data set on Hela (Homo sapiens, HeLa), more than 50 µM; in the data set with HEK293 (Homo sapiens, HEK293), more than 50 µM; with MCF-7 (Homo sapiens, MCF7, 72 h), more than 50 µM. Further, the “effect on the tested cell lines” value in data set [1] is reported as “did not have any effect”.
On to `O=c1[nH]c2c(c(-c3ccccc3)c1Cc1cccc(-c3ccccc3)c1)CCCC2` [Compound 4d, 4-phenyl-3-[(3-phenylphenyl)methyl]-5,6,7,8-tetrahydro-1H-quinolin-2-one], for which the half-inhibitory concentration (IC50) with HepG2 (Homo sapiens, HepG2, 72 h) is more than 50 µM; in the data set on A549 (Homo sapiens, A549, 72 h) it was more than 50 µM; with HCT-116 (Homo sapiens, HCT-116, 72 h), more than 50 µM; in the data set on Hela (Homo sapiens, HeLa) it was more than 50 µM; with HEK293 (Homo sapiens, HEK293), more than 50 µM; in the data set on MCF-7 (Homo sapiens, MCF7, 72 h), more than 50 µM. In data set [1], the “effect on the tested cell lines” value is recorded as “did not have any effect”.
